Experimental data reported in patent US6100073A, “Acid-stable and thermo-stable enzymes derived from sulfolobus species” (Genencor International, Inc., priority 1994, dated 2000).

Molecular target: enzyme having α-1,4 hydrolytic activity derived from Sulfolobus acidocaldarius DSM 639 (purified, about 95 kDa; EC 3.2.1.1 / amylopullulanase) (Sulfolobus acidocaldarius, UniProt Q4J9M2)
Assay: biochemical
Experimental: In a hermetically sealed tube, 25 μl of solution C was mixed with 25 μl of water and then added to 250 μl of a solution containing 0.1% (w/v) Lintner'starch (Baker), citrate/phosphate buffer (100 mM/200 mM) at various pH values (as described in detail below). The mixture was then incubated for 15 minutes at various temperatures (see below). Incubation was terminated by transferring the tube to an ice/water bath (0° C.).
The absorbance was measured at 620 nm (Pharmacia LKB Ultraspec Plus).
A blank assay was performed by replacing the 50 μl enzyme solution C with water.
The relative activity (relative units) was calculated from the standard curve by calculation of the value [(ODb -ODs)/ODb ]×100, and then linearly extrapolating the corresponding volume (μl) from the two closest points of the standard curve.
The relative (α-1,4 hydrolytic) activity (%) is defined as the extrapolated volume value (μl), deduced from the standard curve.
Respective samples of Solution C were obtained and prepared as described above in Example 4 to perform the standard assay.
The influence of various metal cations and of EDTA on the α-1,4 hydrolytic activity of the enzyme derived from Sulfolobus acidocaldarius DSM 639 was determined by running the standard assay described above in Example 4 on each of the tubes (samples) in the presence of the additional various metal cations at a final concentration of 2, 5, and 10 mM.

[1] = read-out: Relative activity (%)

enzyme having α-1,4 hydrolytic activity derived from Sulfolobus acidocaldarius DSM 639 (purified, about 95 kDa; EC 3.2.1.1 / amylopullulanase), sequence (Q4J9M2 1-884): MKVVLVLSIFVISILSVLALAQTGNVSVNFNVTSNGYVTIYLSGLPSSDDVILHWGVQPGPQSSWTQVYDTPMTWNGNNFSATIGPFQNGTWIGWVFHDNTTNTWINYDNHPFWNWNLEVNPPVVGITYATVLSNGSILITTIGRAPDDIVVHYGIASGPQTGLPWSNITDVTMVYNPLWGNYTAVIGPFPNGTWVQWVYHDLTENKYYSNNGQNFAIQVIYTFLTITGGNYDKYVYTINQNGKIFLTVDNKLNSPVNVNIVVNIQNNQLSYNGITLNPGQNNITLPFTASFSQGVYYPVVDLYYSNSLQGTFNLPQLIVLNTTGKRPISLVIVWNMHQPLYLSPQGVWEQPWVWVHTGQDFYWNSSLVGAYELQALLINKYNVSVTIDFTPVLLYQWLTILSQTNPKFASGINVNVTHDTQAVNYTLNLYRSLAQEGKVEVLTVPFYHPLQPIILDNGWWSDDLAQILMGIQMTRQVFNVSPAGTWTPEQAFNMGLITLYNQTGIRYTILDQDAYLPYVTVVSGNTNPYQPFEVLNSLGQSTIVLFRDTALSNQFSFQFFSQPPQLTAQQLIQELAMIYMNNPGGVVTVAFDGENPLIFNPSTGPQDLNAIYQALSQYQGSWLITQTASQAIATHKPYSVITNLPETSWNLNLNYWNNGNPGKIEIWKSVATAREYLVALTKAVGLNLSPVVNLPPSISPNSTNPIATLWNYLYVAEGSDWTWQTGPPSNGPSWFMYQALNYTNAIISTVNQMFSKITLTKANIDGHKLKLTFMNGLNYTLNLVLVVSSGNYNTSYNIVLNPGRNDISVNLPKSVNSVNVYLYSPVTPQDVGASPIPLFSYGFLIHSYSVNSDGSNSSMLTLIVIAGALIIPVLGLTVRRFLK

## O=C(O)CN(CCN(CC(=O)O)CC(=O)O)CC(=O)O [EDTA]
EDTA 2-10 mM, summary of Table 6
  α-1,4 hydrolytic activity in the absence of calcium (with EDTA): fully active
[1]
  activity at 2000 µM: 97%
  activity at 5000 µM: 101%
  activity at 10000 µM: 98%
